# Measured values as given in patent US7338669B2, “Inorganic boranophosphate salts” (Bar-Ilan University, priority 2005, dated 2008).
# Tests used:
# [1] = Solubility of BPi salts in water and organic solvents; type: physicochemical
# [2] = Stability of BPi towards selected organic and inorganic reagents (31P NMR); type: physicochemical
# Text: The reactivity of BPi towards various organic and inorganic reagents was explored as part of the characterization of BPi's chemical nature. These reagents include: aqueous acid solution, nitrile, amide, carbodiimide, pyridine and imidazole, tosyl chloride, phosphorous oxychloride, H2, and Zn^2+ and Mg^2+ ions.
# Although BH3, in complexes with a variety of sulfur/amine/oxygen compounds, is an efficient reducing agent, its reducing nature is drastically altered in Bpi. For instance, while hydrid transfer from “BH3” to water occurs readily, the BH3 moiety in BPi transfers hydride only in a highly acidic solution (pH<2). Likewise, while BH3.
# A carbodiimide reagent is used for the condensations of phosphate to provide the corresponding phosphoric anhydride. […] This finding is in contrast to diethylphosphite (cyano- or methoxycarbonyl)borane analogues, which are stable to dicyclohexylecarbodiimide (DCC) (Vyakaranam et al., 2002).
# The reactivity of BPi with imidazole and pyridine was studied. […] The reaction of 5′-DMT-2′-deoxy-thymidine with tetramethyl boranopyrophosphate in the presence of N-methylimidazole was reported to proceed with the partial removal of the borane group. Likewise, when pyridine was used as a solvent, partial removal of the borane group was observed (Wada et al., 2002).
# The presence of divalent metal ions such as Zn^2+ and Mg^2+ in DMF and water for 48 h and 4 h, respectively, left BPi unchanged.
# [3] = Stability / decomposition rate of BPi in aqueous solution at different pH, monitored by 31P NMR; type: physicochemical
# Method: The decomposition rate was determined by measuring changes in the integration of the respective NMR signals within 96 h.
# BPi is stable in neutral and basic solutions.
# The borane reacts with water to liberate hydrogen gas and boric acid.
# [4] = Method: The ^31P NMR chemical shift was monitored as a function of the pH. A five-parameter sigmoid function was fitted to the data using Sigma Plot 2000 (SPSS, Inc.): δ=δ0+a/[1+e^−((pH-pH0)/b)]^c The inflection point, which is determined by the second derivative of the fitted sigmoid function, is the pKa value.
# The acid-base character of BPi was studied by ^31P NMR—monitored pH-titration, as described in Experimental, (v).
# [5] = comparison value quoted in the text; cited from earlier work
compound,measurement,setting,value
inorganic boranophosphate [BPi],water solubility,[1]; in water,high water solubility
same,stability with imidazole,"[2]; 2 or 10 equiv. imidazole in CD3OD, 96 h, 31P NMR",remained unchanged
same,stability with divalent metal ions,"[2]; Zn^2+ and Mg^2+ in DMF and water for 48 h and 4 h, respectively",unchanged
same,stability in acetonitrile and dimethyl formamide,"[2]; acetonitrile and dimethyl formamide solutions, no reduction of the solvent",complete stability
same,stability in pyridine,"[2]; solution in pyridine, 113 h",negligible cleavage of the P—B bond
same,stability in neutral and basic solutions,[3]; neutral and basic solutions,stable
same,t1/2 of degradation to phosphorus acid,"[3]; pH 2, room temperature, 31P NMR",11.5 days
same,rate of degradation to phosphorus acid,"[3]; pH 2, room temperature, 31P NMR, R^2=1.00",7e-07 s⁻¹
same,degradation observed by 31P NMR,"[3]; pH 13.7, 48 h, room temperature",no degradation
same,behaviour under highly acidic conditions,"[3]; pH<2, H2 evolved, boric acid and phosphorus acid formed",the P—B bond is cleaved
same,stability in acidic solution,[3]; pH>2,relatively stable
Ammonium Boranophosphate [Compound 2a],degraded to phosphorus acid (P—B bond cleavage),"[2]; excess EDC, water pH 6.5, 37° C., 4 h, 31P NMR",72%
same,pKa (first inflection point),[4],7.12
same,pKa (second inflection point),[4],12.54
Tributylammonium Boranophosphate [Compound 2b],solubility in organic solvents,"[1]; organic solvents such as MeOH, CH3CN, DMF, CHCl3",dissolves only in organic solvents
O=[PH](O)O [phosphorus acid],"pKa, higher of the two comparison values",[5],6.2
same,"pKa, lower of the two comparison values (phosphoric acid: second protonation equilibrium)",[5],1.8
